Like-named read-outs stand apart in the source and are kept apart here.
Legend:
Type in all cases: in vivo
[1] = system: Solanum nigrum (black nightshade); experiment: Field trial visual weed control, SOLNI; conditions: 16DAA
Experimental: (§1) One field trial was conducted in field-grown cotton using standard herbicide small plot research methodology (Table 2). Plots were 2 rows wide by 20 ft long with 4 replicates per treatment. The cotton crop was grown using normal cultural practices for fertilization, seeding, watering, flooding and maintenance to ensure good growth of the crop and the weeds.
(§2) All treatments in the field trials were applied using a CO2 backpack sprayer calibrated to apply 187 L/ha spray volume. Commercially available products of penoxsulam and mepiquat chloride were mixed in water at appropriate formulated product rates to achieve the desired rates based on a unit area of application (hectare) to achieve the desired rates as shown. Treatments were sprayed as a postemergence foliar application to cotton at 10-leaf stage application timing. Treatments were rated at 16 and 41 days after the application as compared to the untreated control plants. Visual crop injury ratings were scored on a scale of 0 to 100 where 0 corresponds to no injury and 100 corresponds to complete control. Visual weed control was scored on a scale of 0 to 100 percent where 0 corresponds to no weed control and 100 corresponds to complete control.

[2] = system: Amaranthus spp, (pigweed); experiment: Field trial visual weed control, AMASS; conditions: 16DAA
Experimental: as §1, §2

cotton [3] = experiment: Postemergence plant growth regulator activity in the field (cotton); conditions: for Injury (Cotton) / Reduction (height reduction, Cotton) / Maturity (% open bolls, Cotton): 10-leaf stage
Experimental: Evaluation of Postemergence Plant Growth Regulator Activity in the Field
as §1, §2

cotton [4] = conditions: for Number (Bolls): 52DAAA
Experimental: Evaluation of Postemergence Plant Growth Regulator Activity in the Greenhouse Treatments consisted of the compounds as listed in Table 1. Formulated amounts of penoxsulam (Dow AgroSciences Granite® SC herbicide) were placed in 3-liter bottles and dissolved in a volume of 500 mL of a water solution containing Agri-dex crop oil concentrate in a 1.25% v/v ratio. Compound requirements are based upon a 0.3 L application volume at a rate of 187 liters per hectare (L/ha). Spray solutions of the mixtures were prepared by adding the stock solutions to the appropriate amount of dilution solution to form a 500 mL spray solution with active ingredients in single and two way combinations. Formulated compounds were applied to the plant material via backpack sprayer with XR 11001 nozzles calibrated to deliver 187 L/ha at a spray height of 18 inches ([…] centimeters (cm)) above average plant canopy. The treated and control plants were placed in a greenhouse in a randomized block design on greenhouse carts and watered by […] irrigation to prevent wash-off of the test compounds from leafy tissues. Treatments were rated at 14 to 52 days after application as compared to the untreated control plants. Visual injury ratings were scored on a scale of 0 to 10 where 0 corresponds to no injury and 10 corresponds to complete control.

## C[N+]1(C)CCCCC1 [Mepiquat-chloride]
[1]; 74 gr ai/ha
  Control (SOLNI): 91.3 % Visual
[2]; 74 gr ai/ha
  Control (AMASS): 95 % Visual
Cotton [3]; 74 gr ai/ha, 16DAA
  Injury (Cotton): 0 % Visual
  Reduction (height reduction, Cotton): 11.3 % Visual
Cotton [3]; 74 gr ai/ha, 41DAA
  Injury (Cotton): 5 % Visual
  Maturity (% open bolls, Cotton): 53.8 % Visual
  Reduction (height reduction, Cotton): 13.8 % Visual

## COc1cnc(OC)n2nc(NS(=O)(=O)c3c(OCC(F)F)cccc3C(F)(F)F)nc12 [Penoxsulam, 2-(2,2-difluoroethoxy)-N-(5,8-dimethoxy[1.2.4]triazolo[1,5-c]pyrimidine-2-yl)-6-(trifluoromethyl)benzenesulfonamide]
[1]; 35 gr ai/ha
  Control (SOLNI): 88.8 % Visual
[1]; 70 gr ai/ha
  Control (SOLNI): 93.8 % Visual
Cotton [4]; 8.8 gr ai/ha, application A (4 leaf cotton), 14DAAA
  Height: 17.6 Cm
Cotton [4]; 8.8 gr ai/ha, application A (4 leaf cotton), 27DAAA
  Height: 25.5 Cm
Cotton [4]; 8.8 gr ai/ha, application A (4 leaf cotton), 49DAAA
  Height: 36.6 Cm
Cotton [4]; 8.8 gr ai/ha, application A (4 leaf cotton)
  Number (Bolls): 3.2 Bolls
Cotton [4]; 8.8 gr ai/ha, application B (10 leaf cotton, 21 days after A timing), 14DAAA
  Height: 28.8 Cm
Cotton [4]; 8.8 gr ai/ha, application B (10 leaf cotton, 21 days after A timing), 27DAAA
  Height: 32.7 Cm
Cotton [4]; 8.8 gr ai/ha, application B (10 leaf cotton, 21 days after A timing), 49DAAA
  Height: 44 Cm
Cotton [4]; 8.8 gr ai/ha, application B (10 leaf cotton, 21 days after A timing)
  Number (Bolls): 9 Bolls
Cotton [4]; 17.5 gr ai/ha, application A (4 leaf cotton), 14DAAA
  Height: 15.7 Cm
Cotton [4]; 17.5 gr ai/ha, application A (4 leaf cotton), 27DAAA
  Height: 21.8 Cm
Cotton [4]; 17.5 gr ai/ha, application A (4 leaf cotton), 49DAAA
  Height: 33.5 Cm
Cotton [4]; 17.5 gr ai/ha, application A (4 leaf cotton)
  Number (Bolls): 2.2 Bolls
Cotton [4]; 17.5 gr ai/ha, application B (10 leaf cotton, 21 days after A timing), 14DAAA
  Height: 27.2 Cm
Cotton [4]; 17.5 gr ai/ha, application B (10 leaf cotton, 21 days after A timing), 27DAAA
  Height: 30.4 Cm
Cotton [4]; 17.5 gr ai/ha, application B (10 leaf cotton, 21 days after A timing), 49DAAA
  Height: 39.2 Cm
Cotton [4]; 17.5 gr ai/ha, application B (10 leaf cotton, 21 days after A timing)
  Number (Bolls): 8.4 Bolls
Cotton [4]; 35 gr ai/ha, application A (4 leaf cotton), 14DAAA
  Height: 15.5 Cm
Cotton [4]; 35 gr ai/ha, application A (4 leaf cotton), 27DAAA
  Height: 20.5 Cm
Cotton [4]; 35 gr ai/ha, application A (4 leaf cotton), 49DAAA
  Height: 30.1 Cm
Cotton [4]; 35 gr ai/ha, application A (4 leaf cotton)
  Number (Bolls): 2.8 Bolls
Cotton [4]; greenhouse
  plant growth regulator effect on cotton (summary of Table 1): growth regulating activity of penoxsulam on cotton growth and increase in cotton boll production
[2]; 35 gr ai/ha
  Control (AMASS): 95 % Visual
[2]; 70 gr ai/ha
  Control (AMASS): 98.8 % Visual
Cotton [3]; 35 gr ai/ha, 16DAA
  Reduction (height reduction, Cotton): 11.3 % Visual
Cotton [3]; 35 gr ai/ha, 41DAA
  Maturity (% open bolls, Cotton): 62.5 % Visual
  Reduction (height reduction, Cotton): 10 % Visual
Cotton [3]; 70 gr ai/ha, 16DAA
  Reduction (height reduction, Cotton): 9.3 % Visual
Cotton [3]; 70 gr ai/ha, 41DAA
  Maturity (% open bolls, Cotton): 48.8 % Visual
  Reduction (height reduction, Cotton): 5 % Visual
Cotton [3]; field
  plant growth regulator effect on cotton (summary of Table 2): growth inhibiting activity of penoxsulam, similar to the commercial product mepiquat-chloride, while increasing the maturity of cotton bolls
